From the CATMoS acute toxicity set (Mansouri et al. 2021)

assay: GHS categories as the set defines them, by LD50: 1 up to 5, 2 up to 50, 3 up to 300, 4 up to 2000, 5 above 2000 mg/kg; conditions: rat; in vivo; po

| Compound | GHS category |
| --- | --- |
| COCCOc1nc(Nc2ccc(C=Cc3ccc(Nc4nc(OCCOC)nc(N(C)CCS(=O)(=O)O)n4)cc3S(=O)(=O)O)c(S(=O)(=O)O)c2)nc(N(C)CCS(=O)(=O)O)n1 | 5 |
| Cc1c(C)c([N+](=O)[O-])c(C(C)(C)C)c([N+](=O)[O-])c1C | 5 |
| C=CC(=O)OCCCCOc1ccc(C(=O)Oc2ccc(OC(=O)c3ccc(OCCCCOC(=O)C=C)cc3)c(C)c2)cc1 | 5 |
| CCCN(CCC)C(=O)C(CCC(=O)OCCOC(=O)COC(=O)Cc1c(C)n(C(=O)c2ccc(Cl)cc2)c2ccc(OC)cc12)NC(=O)c1ccccc1 (stereo unspecified) | 4 |
| COC1[C@@H](O[C@@H]2O[C@H](C)[C@@H](O[C@H]3C[C@@](C)(O)[C@H](OC(=O)CC(C)C)[C@H](C)O3)[C@H](N(C)C)[C@H]2O)[C@@H](CC=O)C[C@@H](C)[C@@H](O)C=CC=CC[C@@H](C)OC(=O)C[C@H]1OC(C)=O (stereo partly specified) | 5 |
| CC(=O)O[C@@H]1C(=O)O[C@@H]2[C@H]1OC(=O)[C@@H]2OC(C)=O | 5 |
| CCCCCCCOc1ccc(-c2ccc(C#N)cc2)cc1 | 5 |
| CC(C)CCC[C@@H](C)[C@H]1CC[C@H]2[C@@H]3CC=C4C[C@@H](O)CC[C@]4(C)[C@H]3CC[C@]12C | 5 |
| CCN(C)c1cc(=O)c2c(ccc3ccccc32)o1 | 4 |
| NC(=O)Oc1ccccc1C(=O)Oc1ccccc1[N+](=O)[O-] | 5 |
| N#CC(CCc1ccc(Cl)cc1)(Cn1cncn1)c1ccccc1 (stereo unspecified) | 5 |
| CC(C)C[C@H](NC(=O)[C@@H](Cc1ccc2ccccc2c1)NC(=O)[C@H](Cc1ccc(O)cc1)NC(=O)[C@H](CO)NC(=O)[C@H](Cc1c[nH]c2ccccc12)NC(=O)[C@H](Cc1cnc[nH]1)NC(=O)[C@@H]1CCC(=O)N1)C(=O)N[C@@H](CCCN=C(N)N)C(=O)N1CCC[C@H]1C(=O)NCC(N)=O | 3 |
| CC(O)CCl (stereo unspecified) | 3 |
| CN1CCN(CC(=O)N(C)c2ccc(N)cc2)CC1 | 5 |
| COc1cc(NS(=O)(=O)c2ccc(N)cc2)ncn1 | 5 |
| CCCOC(C)OCCC | 5 |
| O=C1NC(=O)C(c2ccccc2)(c2ccc(O)cc2)N1 (stereo unspecified) | 5 |
| CCC(=O)/C=C/C=C(\C)CCC=C(C)C | 5 |
| CCN(C(=O)CCCn1nnnc1C)C1CCCCC1 | 4 |
| CC1(C)S[C@@H]2[C@H](NC(=O)[C@H](NC(=O)N3CCN(S(C)(=O)=O)C3=O)c3ccccc3)C(=O)N2[C@H]1C(=O)O | 5 |
| COC(=O)CC#N | 5 |
| N[C@@H](CC(=O)N1CCn2c(nnc2C(F)(F)F)C1)Cc1cc(F)c(F)cc1F | 5 |
| CCOC(=O)C1=C(C)NC(C[P+](c2ccccc2)(c2ccccc2)c2ccccc2)=C(C(=O)OCC)C1c1cccc([N+](=O)[O-])c1 (stereo unspecified) | 4 |

| Compound | GHS category |
| --- | --- |
| COC[C@H]1CO[C@@](Cn2ccnc2)(c2cc3cc(Cl)cc(Cl)c3o2)O1 | 4 |
| CCN(C(=O)SCc1ccccc1)C(C)C(C)C (stereo unspecified) | 5 |
| O=C1c2ccccc2OC1c1ccccc1 (stereo unspecified) | 5 |
| Cc1cc(-n2nc3ccc(Cl)cc3n2)c(O)c(C(C)(C)C)c1 | 5 |
| CC(CCC(=O)O)C(=O)O (stereo unspecified) | 4 |
| C=CC(=O)OCCCOc1ccc(C(=O)Oc2ccc(OC(=O)c3ccc(OCCCOC(=O)C=C)cc3)c(C)c2)cc1 | 5 |
| CCn1cc(C(=O)O)c(=O)c2cc(F)c(N3CCNCC3)cc21 | 5 |
| O=C1C2C3CC(C(Br)C3Br)C2C(=O)N1CCN1C(=O)C2C3CC(C(Br)C3Br)C2C1=O (stereo unspecified) | 5 |
| CCCNC(=O)c1sc(-c2ccc(OC)c(OC)c2)nc1C | 5 |
| O=C1CC(=O)NC(=S)N1 | 5 |
| CCCCCCCC/C=C\CCCCCCCC(=O)NCC(C)O (stereo unspecified) | 5 |
| O=C(c1ccccc1)c1ccc2[nH]c(=O)oc2c1 | 5 |
| Cc1cc(-c2ccc(N=C=O)c(C)c2)ccc1N=C=O | 5 |
| Cc1ccc(-n2nccn2)c(C(=O)O)c1 | 5 |
| CCCCCCOC(=O)CC(C)C | 5 |
| CC1(C)Oc2cc(C(=O)c3ccc(Cl)cc3)ccc2NC1=O | 5 |
| CC(=O)OCC1=C(C(=O)O)N2C(=O)[C@@H](N)[C@H]2SC1 | 5 |
| CCCCCC(CCC)COC(=O)c1ccccc1C(=O)OCC(CCC)CCCCC (stereo unspecified) | 5 |
| CC(CCO)CCCC(C)(C)O (stereo unspecified) | 5 |
| OC[C@H]1O[C@@H](OC[C@H]2O[C@@H](O[C@@H]3[C@@H](O)[C@H](O)O[C@H](CO)[C@H]3O)[C@H](O)[C@@H](O[C@@H]3O[C@H](CO)[C@@H](O)[C@H](O)[C@H]3O)[C@@H]2O)[C@H](O)[C@@H](O)[C@@H]1O | 4 |
| CC1COC(Cn2cncn2)(c2cc3ccccc3o2)O1 (stereo unspecified) | 4 |
| C=CC(=O)O[Si](C(C)C)(C(C)C)C(C)C | 5 |
| O=C1c2ccccc2C(=O)N1CC1=Nc2ccccc2Cc2ccccc21 | 5 |

| Compound | GHS category |
| --- | --- |
| C=CC(C)CCC=C(C)C (stereo unspecified) | 5 |
| CCO[Si](CC(C)CC(C)(C)C)(OCC)OCC (stereo unspecified) | 5 |
| CC(C)=CCC/C(C)=C\COC(=O)C(C)C | 5 |
| O=c1nc(Cl)nc(Cl)[nH]1 | 5 |
| CCCC(C)C=O (stereo unspecified) | 5 |
| O=C(O)CCCCCCCCCCC(=O)O | 5 |
| CCOc1c(N)c2c(c(OCC)c1OCC)C(C1c3c(cc4c(c3OC)OCO4)CCN1C)OC2=O (stereo unspecified) | 5 |
| CCC(=O)OC(OC(C(=O)O)[P+](=O)CCCCc1ccccc1)C(C)C (stereo unspecified) | 5 |
| Cc1ccc2oc(C3(Cn4ccnc4)OCCO3)cc2c1 | 4 |
| COc1ccc(OC(=O)c2ccccc2OC(N)=O)cc1 | 5 |
| COc1ccccc1OC(=O)c1ccccc1Nc1cccc(C)c1C | 5 |
| CC(=O)O[C@]1(C(C)=O)CC[C@H]2[C@@H]3C=C(C)C4=CC(=O)CC[C@@H]4[C@H]3CC[C@@]21C | 5 |
| CC1Cc2ccccc2N1NC(=O)c1ccc(Cl)c(S(N)(=O)=O)c1 (stereo unspecified) | 5 |
| CC1(C)CCC(=Cc2ccc(Cl)cc2)C1(O)Cn1cncn1 (stereo unspecified) | 5 |
| COP(=S)(OC)Oc1ccc(/N=N/c2ccc(Cl)cc2)cc1 | 4 |
| CN1COCN=C1N[N+](=O)[O-] | 4 |
| COC(=O)C(C)CCC(=O)N(C)C (stereo unspecified) | 5 |
| COC[C@H]1CO[C@@](Cn2cncn2)(c2cc3ccccc3o2)O1 | 4 |
| CC1N=C(c2ccccc2Cl)c2c(ccc(NC(=O)NCCO)c2Br)N(C)C1=O (stereo unspecified) | 5 |
| CC/C=C\CCOC(C)=O | 5 |
| CC(C)CCOCCC(C)C | 5 |
| CN(C)C(=O)OC1N=C(c2ccccc2)c2cc(Cl)ccc2N(C)C1=O (stereo unspecified) | 5 |
| Brc1cc(Br)c(Oc2nc(Oc3c(Br)cc(Br)cc3Br)nc(Oc3c(Br)cc(Br)cc3Br)n2)c(Br)c1 | 5 |

| Compound | GHS category |
| --- | --- |
| CCC=CCC=CCC=CCC=CCCCCC(=O)OCC | 5 |
| COc1cc(-c2cc(OC)cc(C(C)(C)C)c2O)c(O)c(C(C)(C)C)c1 | 5 |
| CCCCC(O)CCO (stereo unspecified) | 5 |
| C=CC(C)(CCC=C(C)C)OC(=O)Cc1ccccc1 (stereo unspecified) | 5 |
| CCOC(=O)CC#N | 5 |
| C#CCOc1cc(-n2nc(C(C)(C)C)oc2=O)c(Cl)cc1Cl | 5 |
| Clc1ccc(Cl)nn1 | 3 |
| CC(=O)C(=O)CC(C)C | 5 |
| CC(CC=O)CCCC(C)(C)O (stereo unspecified) | 5 |
| CCCCC(CC)COP(=O)(Oc1ccccc1)Oc1ccccc1 (stereo unspecified) | 5 |
| CC(C)=CCC(C#N)(CCN1CCCC1)c1cccc2ccccc12 (stereo unspecified) | 4 |
| COc1ccc2c(c1)CCN(c1ccccc1)C2c1cccc(Br)c1 (stereo unspecified) | 4 |
| C=C(C)C(=O)NCCC[N+](C)(C)C | 5 |
| OC[C@H]1NC[C@H](O)[C@@H](O)[C@@H]1O | 5 |
| COc1cc2c(s1)C(O)=C(C(=O)Nc1ccccn1)N(C)S2(=O)=O | 3 |
| CC(C)[C@H](N)C(=O)O | 5 |
| CN1OCCC(=Cc2cc(C(C)(C)C)c(O)c(C(C)(C)C)c2)C1=O | 4 |
| C[C@]1(Cn2ccnn2)[C@H](C(=O)O)N2C(=O)C[C@H]2S1(=O)=O | 5 |
| CC(C)C[C@H]1C(=O)N2CCC[C@H]2[C@]2(O)O[C@](NC(=O)[C@@H]3C=C4c5cccc6[nH]c(Br)c(c56)C[C@H]4N(C)C3)(C(C)C)C(=O)N12 | 5 |
| CC(CCC(=O)O)C1CCC2C3C(OS(=O)(=O)O)CC4CC(OS(=O)(=O)O)CCC4(C)C3CCC12C (stereo unspecified) | 5 |
| CC1CC(OC(=O)C(C)Oc2cccc(C(F)(F)F)c2)CC(C)(C)C1 (stereo unspecified) | 5 |
| C=CC(C)C(=O)OCC (stereo unspecified) | 5 |
| CCCBr | 5 |

| Compound | GHS category |
| --- | --- |
| CCOC(=O)C(C)(C)Oc1ccc2c(c1)C=C(n1ccnc1)CC2 | 5 |
| CCN(CCO)N=O | 5 |
| CCCCCCCCOC(=O)CCc1cc(C(C)(C)C)c(O)c(C(C)(C)C)c1 | 5 |
| CC(C)=CCN(CC=C(C)C)CCC(C#N)(CC=C(C)C)c1cccc2ccccc12 (stereo unspecified) | 4 |
| CC(C(=O)C(N)=O)c1ccc(N2Cc3ccccc3C2=O)cc1 (stereo unspecified) | 5 |
| Cc1cc(C)c(C=O)c(C)c1 | 5 |
| CC(C)=CCCC(C)(C)O | 5 |
| C#C[C@]1(O)CC[C@H]2[C@@H]3CCc4cc(OC)ccc4[C@H]3CC[C@@]21C | 5 |
| Cc1ncc(COP(=O)(O)O)c(CN)c1O | 5 |
| NC(=O)Oc1ccccc1C(=O)Oc1ccc([N+](=O)[O-])cc1 | 5 |
| CCCC(=O)c1ccc2c(c1)OC(C)(C)C(=O)N2 | 5 |
| CC(C)(C)c1ccc(C(=O)CCCN2CCC(OC(c3ccccc3)c3ccccc3)CC2)cc1 | 5 |
| CC(=O)[C@@]1(O)CC[C@H]2[C@@H]3CCC4=CC(=O)CC[C@]4(C)C3=CC[C@@]21C | 5 |
| CCCCC(CC)COC(=O)CCCCCCCCC(=O)OCC(CC)CCCC (stereo unspecified) | 5 |
| CCC1(c2ccccc2O)NC(=O)NC1=O (stereo unspecified) | 5 |
| CN1CC(c2ccn[nH]2)CC2c3cccc4[nH]cc(c34)CC21 (stereo unspecified) | 4 |
| COC(=O)C1=C(C)NC(COC(N)=O)=C(C(=O)OC(C)C)C1c1cccc(Cl)c1Cl (stereo unspecified) | 5 |
| COc1cc(C=CC(=O)CC(=O)C=Cc2ccc(O)c(OC)c2)ccc1O | 5 |
| CC(=CC1C(C)=CCCC1(C)C)C(C)O (stereo unspecified) | 5 |
